For one data set, the system named is chickens. The settings on record: cimetidine in the diet, stress was not heat; cited from earlier work.
For data set [1] the following is noted: in vivo; cited from earlier work.
Another data set has as its system rat. To be noted: literature; cited from earlier work.
The mark [2] stands for this setting: conscious rats, i.v. 10 mg/kg in 3% EtOH 30 minutes prior to heat exposure at 44° C. ± 1.

We go through one compound from US20060052430A1, “Antihistamines for increased tolerance to extreme heat” (priority 2004, published 2006).

As for `CN/C(=N/CCSCc1nc[nH]c1C)NC#N` [Cimetidine, cimetidine], the “Core body temperature after onset of heat stroke until heat shock, vs controls” value with conscious rats (FIG. 1) is “lower core body temperature”. Also, the “Time a lower, non-pathological core temperature is maintained in extreme heat, vs controls” value in the data set on conscious rats (FIG. 1, cimetidine pretreated animals) is given as 2-4 times longer. The “Time of MAP blood pressure crash, vs controls” value in the data set with conscious rats (FIG. 2) was “delayed”. Further, the “Increase of interval between initiation of exposure to extreme heat and heat stroke crash to 40 mmHg, vs control” value in the data set with conscious rats (cimetidine pretreatment, P<0.05) stood at 2.6 fold. In addition, in the data set with conscious rats (setting [2]), the “Max. HR (heart rate)” value is 532 ± 28 BPM ± SEM, the “Max. MAP (mean arterial pressure)” value is 173 ± 23 mmHg ± SEM and the “Max. TB (body temperature)” value is 41.9 ± 0.9 °C ± SEM. In addition, the “Heat Tolerance (time of heat exposure until heat shock, TB ≧ 41.3° C. and MAP <40 mmHg)” value with conscious rats (conscious rats, i.v. 10 mg/kg in 3% EtOH 30 minutes prior to heat exposure at 44° C. ± 1, p<0.05 vs control) is listed as 315 ± 61 minutes ± SEM. The “Heart rate in the interval from exposure to heat stroke, MAP crash, vs controls” value in the data set on conscious rats (rat, in vivo) is given as “did not differ”. In the data set with chickens, the Stress-induced modulations result was “reduced”. Also, the Half-life in data set [1] was 2 h. Moreover, in the data set with rat, the “Effect in heat-induced brain injury (blood-brain barrier permeability, cerebral blood flow disturbances, edema, cell reactions)” value is on record as “beneficial”.
